Laboratory results: patent publication US9023789B2, “Amylin analogs and pharmaceutical compositions thereof” (Novo Nordisk A/S, priority 2012, dated 2015)
Numbered stars: 1 amine (or outer) side, 2 acyl side, 3 side chain; on linkers, the order of the positions; unused ones are H or OH. Bridge positions count the residues as written; N and C are the ends. Side chains are listed from the residue outwards. Peptide text beside a SMILES is read from it. * marks the point of attachment. C20 diacid = O=C(O)CCCCCCCCCCCCCCCCCCC(=O)*; γGlu = O=C(O)[C@H](CCC(=O)[*:2])N[*:1]

Assays:
Male Sprague-Dawley rats = assay: ASSAY (XI) single subcutaneous administration, food intake monitored for 48 hours in rats; type: in vivo, rat; settings: for Food intake red (%) 0-24 h / Food intake red (%) 24-48 h: single s.c., compared to vehicle
From the text: Assay (XI)—Effect from Single Subcutaneous Administration of Analogue on Plasma Calcium in Rats
Male Sprague-Dawley rats (Taconic Europe, ˜250 g at test date) were acclimatized to reversed day light cycle (lights on from 10 PM to 10 AM) and single housing in online food intake monitoring system (Ellegaard MBRose, Denmark) prior to study start. […] Data are illustrated in graphs as mean±SEM.

Male Wistar rats = assay: ASSAY (XII) effect from single subcutaneous administration on plasma calcium in rats; type: in vivo, rat; settings: for Plasma calcium red (%) 0-12 h (maximal): single s.c., compared to vehicle; for suppression of plasma calcium level relative to vehicle: single subcutaneous 30 nmol/kg, monitored over 24 hours
Procedure: Assay (XII)—Effect from Single Subcutaneous Administration of Analogue on Plasma Calcium in Rats
Male Wistar rats (Taconic Europe, ˜250 g at test date) were acclimatized to handling prior to the study. Rats were divided in groups of five and subcutaneously dosed with test compound at time=0. At time T=−15 min; 1 h, 2 h, 4 h, 7 h, 12 h, and 24 h a blood sample was obtained and heparin stabilized plasma was analysed for total calcium (Cobas, Hitachi). Data are illustrated in graphs as mean±SEM.

Row | Plasma calcium red (%) 0-12 h (maximal) (Male Wistar rats; 30 nmol/kg) | Plasma calcium red (%) 0-12 h (maximal) (Male Wistar rats; 10 nmol/kg) | SMILES | Food intake red (%) 0-24 h (Male Sprague-Dawley rats; 30 nmol/kg) | Food intake red (%) 24-48 h (Male Sprague-Dawley rats; 30 nmol/kg) | suppression of plasma calcium level relative to vehicle (Male Wistar rats) | Food intake red (%) 0-24 h (Male Sprague-Dawley rats; 3 nmol/kg) | Food intake red (%) 24-48 h (Male Sprague-Dawley rats; 3 nmol/kg) | food intake monitored over 48 hours (Male Sprague-Dawley rats; single subcutaneous administration, 30 nmol/kg, versus vehicle)
1 | 10% |  | CC[C@H](C)[C@H](NC(=O)[C@H](C)NC(=O)CNC(=O)[C@H](Cc1ccccc1)NC(=O)[C@H](CC(N)=O)NC(=O)[C@@H]1CCCN1C(=O)[C@H](CO)NC(=O)[C@H](CO)NC(=O)[C@H](Cc1c[nH]cn1)NC(=O)[C@H](CCCNC(=N)N)NC(=O)[C@H](CC(C)C)NC(=O)[C@H](Cc1ccccc1)NC(=O)[C@H](CCC(=O)O)NC(=O)[C@H](C)NC(=O)[C@H](CC(C)C)NC(=O)[C@H](CCCNC(=N)N)NC(=O)[C@H](CCC(N)=O)NC(=O)[C@@H](NC(=O)[C@H](C)NC(=O)[C@@H]1CSSC[C@H](NC(=O)[C@@H](N)CCCCNC(=O)CC[C@H](NC(=O)CCCCCCCCCCCCCCCCCCC(=O)O)C(=O)O)C(=O)N[C@@H](CC(N)=O)C(=O)N[C@@H]([C@@H](C)O)C(=O)N[C@@H](C)C(=O)N[C@@H]([C@@H](C)O)C(=O)N1)[C@@H](C)O)C(=O)N1CCC[C@H]1C(=O)N[C@@H](CO)C(=O)N[C@@H](CO)C(=O)N[C@H](C(=O)N[C@@H](CC(N)=O)C(=O)N[C@H](C(=O)NCC(=O)N[C@@H](CO)C(=O)N[C@@H](CCCNC(=N)N)C(=O)N[C@H](C(=O)N[C@@H](Cc1ccc(O)cc1)C(N)=O)[C@@H](C)O)C(C)C)[C@@H](C)O [Example 51] (H-K([γGlu-C20 diacid])CNTATCATQRLAEFLRHSSPNFGAIPSSTNVGSRTY-NH2; disulfide 2-7 (inferred); N-terminus assumed) | 52% | 30% | None of the example compounds at 30 nmol/kg trigger a notable suppression of the calcium level |  |  | 
2 | 26% |  | CC[C@H](C)[C@H](NC(=O)[C@H](C)NC(=O)CNC(=O)[C@H](Cc1ccccc1)NC(=O)[C@H](CC(N)=O)NC(=O)[C@@H]1CCCN1C(=O)[C@H](CO)NC(=O)[C@H](CO)NC(=O)[C@H](Cc1c[nH]cn1)NC(=O)[C@H](CCCNC(=N)N)NC(=O)[C@H](CC(C)C)NC(=O)[C@H](Cc1ccccc1)NC(=O)[C@H](CCC(=O)O)NC(=O)[C@H](C)NC(=O)[C@H](CC(C)C)NC(=O)[C@H](CCCNC(=N)N)NC(=O)[C@H](CCC(N)=O)NC(=O)[C@@H](NC(=O)[C@H](C)NC(=O)[C@@H]1CSSC[C@H](NC(=O)[C@@H](N)CCCCNC(=O)CC[C@H](NC(=O)CCCCCCCCCCCCCCCCCCC(=O)O)C(=O)O)C(=O)N[C@@H](CC(N)=O)C(=O)N[C@@H]([C@@H](C)O)C(=O)N[C@@H](C)C(=O)N[C@@H]([C@@H](C)O)C(=O)N1)[C@@H](C)O)C(=O)N1CCC[C@H]1C(=O)N[C@@H](CO)C(=O)N[C@@H](CO)C(=O)N[C@H](C(=O)N[C@@H](CC(N)=O)C(=O)N[C@H](C(=O)NCC(=O)N1CCC[C@H]1C(=O)N[C@@H](Cc1c[nH]cn1)C(=O)N[C@H](C(=O)N[C@@H](Cc1ccc(O)cc1)C(N)=O)[C@@H](C)O)C(C)C)[C@@H](C)O [Example 118] (H-K([γGlu-C20 diacid])CNTATCATQRLAEFLRHSSPNFGAIPSSTNVGPHTY-NH2; disulfide 2-7) | 77% | 30% |  | 43% | 1% | 
3 | 9% |  | CC[C@H](C)[C@H](NC(=O)[C@H](C)NC(=O)CNC(=O)[C@H](Cc1ccccc1)NC(=O)[C@H](CC(N)=O)NC(=O)[C@@H]1CCCN1C(=O)[C@H](CO)NC(=O)[C@H](CO)NC(=O)[C@H](Cc1c[nH]cn1)NC(=O)[C@H](CCCNC(=N)N)NC(=O)[C@H](CC(C)C)NC(=O)[C@H](Cc1ccccc1)NC(=O)[C@H](CCC(=O)O)NC(=O)[C@H](C)NC(=O)[C@H](CC(C)C)NC(=O)[C@H](CCCNC(=N)N)NC(=O)[C@H](CCC(N)=O)NC(=O)[C@@H](NC(=O)[C@H](C)NC(=O)[C@@H]1CSSC[C@H](NC(=O)[C@@H](N)CCCCNC(=O)CC[C@H](NC(=O)CCCCCCCCCCCCCCCCCCC(=O)O)C(=O)O)C(=O)N[C@@H](CC(N)=O)C(=O)N[C@@H]([C@@H](C)O)C(=O)N[C@@H](C)C(=O)N[C@@H]([C@@H](C)O)C(=O)N1)[C@@H](C)O)C(=O)N1CCC[C@H]1C(=O)N[C@@H](CO)C(=O)N[C@@H](CO)C(=O)N[C@H](C(=O)N[C@@H](CC(N)=O)C(=O)N[C@H](C(=O)NCC(=O)N1CCC[C@H]1C(=O)N[C@@H](CCCNC(=N)N)C(=O)N[C@H](C(=O)N[C@@H](Cc1ccc(O)cc1)C(N)=O)[C@@H](C)O)C(C)C)[C@@H](C)O [Example 117] (H-K([γGlu-C20 diacid])CNTATCATQRLAEFLRHSSPNFGAIPSSTNVGPRTY-NH2; disulfide 2-7; N-terminus assumed) | 61% | 4% | None of the example compounds at 30 nmol/kg trigger a notable suppression of the calcium level |  |  | reduces food intake
4 | 11% | 3% | CC[C@H](C)[C@H](NC(=O)[C@H](C)NC(=O)CNC(=O)[C@H](Cc1ccccc1)NC(=O)[C@H](CC(N)=O)NC(=O)[C@@H]1CCCN1C(=O)[C@H](CO)NC(=O)[C@H](CO)NC(=O)[C@H](Cc1c[nH]cn1)NC(=O)[C@H](CCCNC(=N)N)NC(=O)[C@H](CC(C)C)NC(=O)[C@H](Cc1ccccc1)NC(=O)[C@H](CCC(=O)O)NC(=O)[C@H](C)NC(=O)[C@H](CC(C)C)NC(=O)[C@H](CCCNC(=N)N)NC(=O)[C@H](CCC(N)=O)NC(=O)[C@@H](NC(=O)[C@H](C)NC(=O)[C@@H]1CSSC[C@H](NC(=O)[C@@H](N)CCCCNC(=O)CC[C@H](NC(=O)CC[C@H](NC(=O)CCCCCCCCCCCCCCCCCCC(=O)O)C(=O)O)C(=O)O)C(=O)N[C@@H](CC(N)=O)C(=O)N[C@@H]([C@@H](C)O)C(=O)N[C@@H](C)C(=O)N[C@@H]([C@@H](C)O)C(=O)N1)[C@@H](C)O)C(=O)N1CCC[C@H]1C(=O)N[C@@H](CO)C(=O)N[C@@H](CO)C(=O)N[C@H](C(=O)N[C@@H](CC(N)=O)C(=O)N[C@H](C(=O)NCC(=O)N1CCC[C@H]1C(=O)N[C@@H](Cc1c[nH]cn1)C(=O)N[C@H](C(=O)N[C@@H](Cc1ccc(O)cc1)C(N)=O)[C@@H](C)O)C(C)C)[C@@H](C)O [Example 124] (H-K([γGlu-γGlu-C20 diacid])CNTATCATQRLAEFLRHSSPNFGAIPSSTNVGPHTY-NH2; disulfide 2-7 (inferred)) | 73% | 38% |  |  |  | 
